Measured values taken from publication PMC4191406, “Tumor-targeted in vivo gene silencing via systemic delivery of cRGD-conjugated siRNA” (Nucleic Acids Research, 2014).

Assay: Serum cytokines by ELISA (innate immune response)
Format: in vivo, athymic nude mice (nu/nu)
Conditions: single injection 1 nmol, 6 and 24 h after the injection, n = 3, versus saline
Procedure: Athymic nude female mice (nu/nu) were injected with 1 nmol (∼0.753 mg/kg; n = 3) of cRGD-siRNA or 1 nmol of cRGD alone (∼0.045 mg/kg; n = 3) in 150 μl of saline. Mice (n = 3) injected with saline alone (200 μl) were used as negative controls. Six hours and 24 h after the injection, 300 μl of blood was drawn from each mouse and the serum was collected. Levels of serum cytokines IFN-α, IFN-γ, IL-6 and IL-12 were determined by ELISA, following manufacturer's recommendations (eBioscience/Affymetrix, USA).

Structure (SMILES): N=C(N)NCCC[C@@H]1NC(=O)[C@H](CCCCNC(=O)COCCOCCNC(=O)CCN2C(=O)C=CC2=O)NC(=O)[C@@H](Cc2ccccc2)NC(=O)[C@H](CC(=O)O)NC(=O)CNC1=O [cRGD, cyclo(Arg-Gly-Asp-D-Phe-Lys[PEG-MAL])]
- serum levels of interferons α and γ, interleukins 6 and 12: No significant difference
